From patent US12528777B2, “Quinazolinones derivatives for treatment of non-alcoholic fatty liver disease, preparation and use thereof” (Council of Scientific and Industrial Research, priority 2020, dated 2026)
pEC50: −log10 of the molar value.

What follows are compounds tested on ATGL (assay: Western blot of ATGL level in HepG2 cells). Details: HepG2 cells, western blot, score.
Assay type: cell-based
Design: key to Increase in ATGL level: + = slight or in insignificant; ++ = Moderate; +++ and ++++ = active; +++ and ++++ = active; +++++ = very active
Experimental: To select the compounds capable of inhibiting the ubiquitination of ATGL by COP1 by targeting the VP motif, confocal microscopy was performed with the provided molecules. If the compound was effective in inhibiting the interaction, there would be a reduction in the number of fat droplets in the cells after treatment. […] With this rationale in mind, HepG2 cells were induced to accumulate lipid droplets after treatment with 250 µM of oleate and 10 μM of the specific compounds were added. The potential of the compounds to bring about a reduction in the number of fat droplets was then checked by comparison with oleate induced cells by counting number of droplets of approximately 20 cells from each treatment and calculating the average number of lipid droplets of each cell. The selected compounds were then subjected to dose dependent treatments and the ones which could maintain its potency to reduce fat droplets at lower doses were then selected for western blot analysis. The compound which could reduce the number of fat droplets in the cells are expected to raise the levels of ATGL since they are likely to deter COP1 from ubiquitinating ATGL. This increase will be visible only in the protein level and gene expression is likely to remain unchanged since ubiquitination is a […] modification. Thus, western blot was performed to check ATGL levels in the cells with the selected molecules.
HepG2 cells were treated with the compounds 9, 10, 11, 17, 18, 23, 24, 115, 123, 127, 139,107, 171, 179, 73, 187, 211, 215, 219, 223, 232, 238, 241, 244, 258, 299, 308, and 333a, (10 μM for initial screening and 50 nM, 100 nM, 200 nM, 500 nM, 1 μM and 5 μM for dose dependent assays) for 24 hours. After removing media from the cells, the wells were washed with 1×PBS twice to remove any remnant media. Cells were then lysed in lysis buffer containing 50 mM Tris-HCl (pH 7.4), 100 mM NaCl, 1 mM EDTA, 1 mM EGTA, 1% Triton X-100 and protease inhibitor cocktail (Millipore, Billierica, MA, USA). Following centrifugation at 20,000 g for 20 minutes, the protein solution was extracted from the cells. Protein was estimated using Bradford assay. Bradford's reagent (BioRad) was diluted in 1:4 ratio in double distilled water. 2 μl of protein sample was added to 100 μl of the reagent and absorbance was measured at 595 nm. […] of protein was diluted in lysis buffer. 1× loading buffer diluted from 5× stock containing 250 mM Tris-HCl (pH 6.8), 10% SDS, 50% glycerol, 0.1% bromophenol Blue and 10% β-mercaptoethanol was added. The protein samples were then heated at 95° C. for 10 minutes, cooled and centrifuged at 12,000 g for 2 minutes prior to loading.
For western blotting, the proteins were resolved in 10% SDS PAGE (discontinuous buffer system). 1× running buffer containing SDS, Tris Base and Glycine was used to run the gel at 80V for approximately 2 hours. Transfer was done using PVDF membrane (Millipore) having pore size of 0.45 μm. 1× transfer buffer containing Tris-Base, Glycine and 20% methanol was used for wet transfer. Transfer was done at 90V for 3 hours. Following transfer, the PVDF membrane containing the proteins were washed in 1×PBST comprising of 1×PBS and 1% Tween 20 (Sigma Aldrich). The membrane was then incubated for 1 hour at room temperature in 5% skim milk powder to block the non-specific sites. Following multiple washes with 1×PBST to wash away any remaining blocking buffer, the required primary antibody (COP1 [Bethyl Laboraties], ATGL [Cell Signalling Technology] or Actin[Cell Signalling Technology]) prepared with 1×PBST, 1% Bovine Serum Albumin and 0.04% Sodium Azide was added to the membrane and incubated overnight at 4° C. The next day, the membrane was again washed multiple times with 1×PBST to remove any unbound primary antibody. The membrane was then incubated with goat anti-rabbit secondary antibody (Genei) for 1 hour at room temperature and washed again for multiple times with 1×PBST. […]

Structure (SMILES) | Increase in ATGL level
CC(=O)c1cccc(NC(=O)Nc2ccc3ncn(C4CCCCC4)c(=O)c3c2)c1 [Compound 187, 1-(3-acetylphenyl)-3-(3-cyclohexyl-4-oxo-3,4-dihydroquinazolin-6-yl)urea] | +++
CCC(COC)n1c(C)nc2ccc(NC(=O)Nc3cccc(C(C)=O)c3)cc2c1=O (stereo not drawn) [Compound 281, 1-(3-acetylphenyl)-3-(3-(1-methoxybutan-2-yl)-2-methyl-4-oxo-3,4-dihydroquinazolin-6-yl)ureae] | ++
COCCn1cnc2ccc(NC(=O)Nc3ccccc3C(F)(F)F)cc2c1=O [Compound 39, 1-(3-(2-methoxyethyl)-4-oxo-3,4-dihydroquinazolin-6-yl)-3-(2-(trifluoromethyl)phenyl)urea] | ++
COc1ccccc1-n1cnc2ccc(NC(=O)Nc3cccc(C(C)=O)c3)cc2c1=O [Compound 131, 1-(3-acetylphenyl)-3-(3-(2-methoxyphenyl)-4-oxo-3,4-dihydroquinazolin-6-yl)urea] | +
CC(=O)c1cccc(NC(=O)Nc2ccc3ncn(N4CCOCC4)c(=O)c3c2)c1 [Compound 340, 1-(3-acetylphenyl)-3-(3-morpholino-4-oxo-3,4-dihydroquinazolin-6-yl)urea] | +
COCCn1cnc2ccc(NC(=O)Nc3cccc(C(C)=O)c3)c(-c3ccc(OC)cc3)c2c1=O [Compound 64, 1-(3-acetylphenyl)-3-(3-(2-methoxyethyl)-5-(4-methoxyphenyl)-4-oxo-3,4-dihydroquinazolin-6-yl)urea] | +
COCCn1cnc2ccc(NC(=O)Nc3cccc(C(C)=O)c3)c(-c3ccc(C(F)(F)F)cc3)c2c1=O [Compound 66, 1-(3-acetylphenyl)-3-(3-(2-methoxyethyl)-4-oxo-5-(4-(trifluoromethyl)phenyl)-3,4-dihydroquinazolin-6-yl)urea] | ++
COCCn1cnc2ccc(NC(=O)Nc3cccc(C(C)=O)c3)c(C3=CCNCC3)c2c1=O [Compound 60, 1-(3-acetylphenyl)-3-(3-(2-methoxyethyl)-4-oxo-5-(1,2,3,6-tetrahydropyridin-4-yl)-3,4-dihydroquinazolin-6-yl)urea] | +
COCCn1c(CN2CCCC2)nc2ccc(NC(=O)Nc3cccc(C(C)=O)c3)cc2c1=O [Compound 232, 1-(3-acetylphenyl)-3-(3-(2-methoxyethyl)-4-oxo-2-(pyrrolidin-1-ylmethyl)-3,4-dihydroquinazolin-6-yl)urea] | +++
COCCn1c(C)nc2ccc(NC(=O)Nc3cccc(C(C)=O)c3)c(Br)c2c1=O [Compound 345, 1-(3-acetylphenyl)-3-(5-bromo-3-(2-methoxyethyl)-2-methyl-4-oxo-3,4-dihydroquinazolin-6-yl)urea] | +
COCCn1cnc2ccc(NC(=O)Nc3cccc(C(C)=O)c3)c(C3=CCN(C(=O)OC(C)(C)C)CC3)c2c1=O [Compound 59, tert-butyl 4-(6-(3-(3-acetylphenyl)ureido)-3-(2-methoxyethyl)-4-oxo-3,4-dihydroquinazolin-5-yl)-5,6-dihydropyridine-1 (2H)-carboxylate] | +
COCCn1cnc2ccc(NC(=O)Nc3cccc(C(C)=O)c3)c(-c3ccc(F)cc3)c2c1=O [Compound 47, 1-(3-acetylphenyl)-3-(5-(4-fluorophenyl)-3-(2-methoxyethyl)-4-oxo-3,4-dihydroquinazolin-6-yl)urea] | +++
COCC(C)n1c(C)nc2ccc(NC(=O)Nc3cccc(C(C)=O)c3)cc2c1=O (stereo not drawn) [Compound 285, 1-(3-acetylphenyl)-3-(3-(1-methoxypropan-2-yl)-2-methyl-4-oxo-3,4-dihydroquinazolin-6-yl)urea] | +
CC(=O)c1cccc(NC(=O)Nc2ccc3ncn(CC(=O)Nc4ccccc4Br)c(=O)c3c2)c1 [Compound 259, 2-(6-(3-(3-acetylphenyl)ureido)-4-oxoquinazolin-3 (4H)-yl)-N-(2-bromophenyl)acetamide] | +++
COCCn1cnc2ccc(NC(=O)Nc3cccc(CNC(C)=O)c3)cc2c1=O [Compound 25, N-(3-(3-(3-(2-methoxyethyl)-4-oxo-3,4-dihydroquinazolin-6-yl)ureido)benzyl)acetamide] | +
COCCn1cnc2ccc(NC(=O)Nc3ccc(C(F)(F)F)cc3)cc2c1=O [Compound 38, 1-(3-(2-methoxyethyl)-4-oxo-3,4-dihydroquinazolin-6-yl)-3-(4-(trifluoromethyl)phenyl)urea] | ++
COCCn1cnc2ccc(NC(=O)Nc3cccc(C(C)=O)c3)c(C3CCNCC3)c2c1=O [Compound 62, 1-(3-acetylphenyl)-3-(3-(2-methoxyethyl)-4-oxo-5-(piperidin-4-yl)-3,4-dihydroquinazolin-6-yl)urea] | +++
COCCn1cnc2ccc(NC(=O)Nc3cccc(C(C)=O)c3)c(C3CCN(C(=O)OC(C)(C)C)CC3)c2c1=O [Compound 61, tert-butyl 4-(6-(3-(3-acetylphenyl)ureido)-3-(2-methoxyethyl)-4-oxo-3,4-dihydroquinazolin-5-yl)piperidine-1-carboxylate] | +
CC(=O)c1cccc(NC(=O)Nc2ccc3ncn(CCOC(C)C)c(=O)c3c2)c1 [Compound 183, 1-(3-acetylphenyl)-3-(3-(2-isopropoxyethyl)-4-oxo-3,4-dihydroquinazolin-6-yl)urea] | +++

Same assay, conditions: fold increase of ATGL by densitometry, as % of 1.6 fold maximum with siCOP1; doses 10-5000 nM; read-out: EC50 (in-vitro)

Structure (SMILES) | pEC50
COCCn1c(CN2CCCC2)nc2ccc(NC(=O)Nc3cccc(C(C)=O)c3)cc2c1=O [Compound 232, 1-(3-acetylphenyl)-3-(3-(2-methoxyethyl)-4-oxo-2-(pyrrolidin-1-ylmethyl)-3,4-dihydroquinazolin-6-yl)urea] | 6.36
COCCn1c(C2CCN(C(=O)OC(C)(C)C)CC2)nc2ccc(NC(=O)Nc3cccc(C(C)=O)c3)cc2c1=O [Compound 299, tert-butyl 4-(6-(3-(3-acetylphenyl)ureido)-3-(2-methoxyethyl)-4-oxo-3,4-dihydroquinazolin-2-yl)piperidine-1-carboxylate] | 6.54
COCCn1c(-c2cnccn2)nc2ccc(NC(=O)Nc3cccc(C(C)=O)c3)cc2c1=O [Compound 223, 1-(3-acetylphenyl)-3-(3-(2-methoxyethyl)-4-oxo-2-(pyrazin-2-yl)-3,4-dihydroquinazolin-6-yl)urea] | 7.15
COCCn1c(C2CCCC2)nc2ccc(NC(=O)Nc3cccc(C(C)=O)c3)cc2c1=O [Compound 127, 1-(3-acetylphenyl)-3-(2-cyclopentyl-3-(2-methoxyethyl)-4-oxo-3,4-dihydroquinazolin-6-yl)urea] | 7.97

Same assay, conditions: western blot, 24 hours, 10 μM screening or 50 nM-5 μM dose dependent

Structure (SMILES) | ATGL level in HepG2 cells
COCCn1c(CN2CCCC2)nc2ccc(NC(=O)Nc3cccc(C(C)=O)c3)cc2c1=O [Compound 232, 1-(3-acetylphenyl)-3-(3-(2-methoxyethyl)-4-oxo-2-(pyrrolidin-1-ylmethyl)-3,4-dihydroquinazolin-6-yl)urea] | increased ATGL level
COCCn1c(C2CCN(C(=O)OC(C)(C)C)CC2)nc2ccc(NC(=O)Nc3cccc(C(C)=O)c3)cc2c1=O [Compound 299, tert-butyl 4-(6-(3-(3-acetylphenyl)ureido)-3-(2-methoxyethyl)-4-oxo-3,4-dihydroquinazolin-2-yl)piperidine-1-carboxylate] | increased ATGL level
COCCn1cnc2ccc(NC(=O)N(O)c3cccc(C(C)=O)c3)cc2c1=O [Compound 308, 1-(3-acetylphenyl)-1-hydroxy-3-(3-(2-methoxyethyl)-4-oxo-3,4-dihydroquinazolin-6-yl)urea] | increased ATGL level
COCCn1c(-c2cnccn2)nc2ccc(NC(=O)Nc3cccc(C(C)=O)c3)cc2c1=O [Compound 223, 1-(3-acetylphenyl)-3-(3-(2-methoxyethyl)-4-oxo-2-(pyrazin-2-yl)-3,4-dihydroquinazolin-6-yl)urea] | increased ATGL level
COCCn1c(CN2CCN(C)CC2)nc2ccc(NC(=O)Nc3cccc(C(C)=O)c3)cc2c1=O [Compound 244, 1-(3-acetylphenyl)-3-(3-(2-methoxyethyl)-2-((4-methylpiperazin-1-yl)methyl)-4-oxo-3,4-dihydroquinazolin-6-yl)urea] | increased ATGL level
COCCn1c(C(=O)N2CCN(C)CC2)nc2ccc(NC(=O)Nc3cccc(C(C)=O)c3)cc2c1=O [Compound 333a, 1-(3-acetylphenyl)-3-(3-(2-methoxyethyl)-2-(4-methylpiperazine-1-carbonyl)-4-oxo-3,4-dihydroquinazolin-6-yl)urea] | increased ATGL level
COCCn1c(C2CCCC2)nc2ccc(NC(=O)Nc3cccc(C(C)=O)c3)cc2c1=O [Compound 127, 1-(3-acetylphenyl)-3-(2-cyclopentyl-3-(2-methoxyethyl)-4-oxo-3,4-dihydroquinazolin-6-yl)urea] | increased ATGL level
